50 molecules from US8809341B2, “2,4-pyrimidinediamine compounds and uses as anti-proliferative agents” (Rigel Pharmaceuticals, Inc., priority 2003, dated 2014) can be followed below.

Structures are written as SMILES. Read-outs that look alike come from different tables or passages of the source. Bounds are passed on as bounds.

Type in all cases: cell-based
One experiment relates to A549 cells. Nature of the experiment: in vitro antiproliferation assay, A549 (lung). The settings on record: A549 (lung) cells. Summed up: (§1)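 IC50 values came from standard antiproliferation testing in cultured tumour cells; the A549 and H1299 lines are of lung origin.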
For the next experiment, the system named is PC3. Nature of the experiment: in vitro antiproliferation assay, PC3 (prostate). As for the experimental part: (§2) The IC50 values of various compounds against a various different tumor cell lines were determined using standard in vitro antiproliferation assays. The tumor cell lines tested were as follows: A549 (lung); H1299 (lung), ACHN (kidney/p53 wt), CAKI (renal cell carcinoma), NCI-H460 (lung); HCT116 (colon/p53w0; HELA (cervix/p53 wt), HUH7 (liver/p53 wt), HUVEC (primary endothelial), LNCAP (prostate), HT-29 (colon); MCF-7 (breast); MCF-7 (breast/ER positive), MDA MB435S (breast); MDA MB231 (breast/ER negative), DU145 (prostate); BxPC-3 (pancreatic); SKOV-3 (ovarian); HepG2 (hepatic), NDHF primary normal human dermal fibroblast), SKMEL28 (breast/p53mut), SKMEL5 (breast/p53 wt), U20S (bone) and PC3 (prostate). […] A blank indicates the specified compound was not tested against the specified cell line.
(§3) Many of the compounds were tested against other cell lines. Their activity is reported in TABLE 15, below, where +”, “−”, “−/+” or “+/−” values are as described for TABLES 1-14. Where the cell line includes a value in a parenthetical, the value indicates the seeding density at which the assay was performed

In a further experiment the test system is HCT116. Nature of the experiment: in vitro antiproliferation assay, HCT116 (colon). As for the experimental part: as §2, §3
In the next experiment the test system is H1299 cells. Nature of the experiment: in vitro antiproliferation assay, H1299 (lung). The settings on record: H1299 (lung) cells. Summed up:
as §1

[1] abbreviates: in vitro antiproliferation, Table 4, compounds with no designated stereochemistry tested as racemate.
Where [2] appears, read: Table 5, in vitro antiproliferation.
Where [3] appears, read: Table 7, in vitro antiproliferation.
Setting [4] is: Table 7, in vitro antiproliferation, colon cells, read-out: HTC116.
Setting [5] is: HCT116 (colon), read-out: HCT116.

In the case of `CNC(=O)COc1cccc(Nc2ncc(F)c(Nc3ccc4c(c3)NC(=O)C(C)O4)n2)c1` (racemic) [compound 256], the IC50 in the experiment with A549 cells (setting [1]) and with PC3 was not above 20 µM throughout.
In the case of `O=C1COc2ccc(Nc3nc(Nc4cccc(O)c4)ncc3F)cc2N1` [compound 254], the IC50 in the experiment with A549 cells (setting [1]) and in the experiment with PC3 was not above 20 µM in each case.
In the experiment with PC3, `CNC(=O)COc1cccc(Nc2ncc(F)c(Nc3ccc4c(n3)NC(=O)CO4)n2)c1` [compound 418] returned an IC50 not above 20 µM.
Still for that read-out and setting: the figure for `Fc1cnc(Nc2cccc(OCCN3CCOCC3)c2)nc1Nc1ccc2c(c1)OCCO2` [compound 500] is more than 20 µM.
As for `CNC(=O)COc1ccc(Nc2ncc(F)c(Nc3ccc4c(c3)OCCO4)n2)cc1` [compound 501], the IC50 in the experiment with A549 cells (setting [2]) and in the experiment on PC3 was more than 20 µM in each case.
For the molecule `Fc1cnc(Nc2ccc(OCCN3CCOCC3)cc2)nc1Nc1ccc2c(c1)OCCO2` [compound 502], the IC50 in the experiment on A549 cells (setting [2]) and in the experiment with PC3 was more than 20 µM in each case.
As for `O=C(COc1cccc(Nc2ncc(F)c(Nc3ccc4c(c3)OCCO4)n2)c1)NC1CCCCC1` [compound 508], the IC50 with A549 cells (setting [2]) and in the experiment with PC3 was more than 20 µM in each case.
For the molecule `CN(CCO)C(=O)COc1cccc(Nc2ncc(F)c(Nc3ccc4c(c3)OCCO4)n2)c1` [compound 509], the IC50 in the experiment with A549 cells (setting [2]) and in the experiment with PC3 was more than 20 µM each time.
For `CN(C)CCOc1cccc(Nc2ncc(F)c(Nc3ccc4c(c3)OCCO4)n2)c1` [compound 510], the IC50 with A549 cells (setting [2]) and in the experiment on PC3 was more than 20 µM each time.
As to `CC(C)c1ccc(Nc2ncc(F)c(Nc3ccc4c(c3)OCCO4)n2)cc1` [compound 511], the IC50 in the experiment with A549 cells (setting [2]) is more than 20 µM; with PC3, not above 20 µM.
With `CNC(=O)COc1cccc(Nc2ncc(F)c(Nc3ccc4c(c3)OCCO4)n2)c1` [compound 516], in the experiment with PC3, the IC50 was not above 20 µM.
Take `COC(=O)COc1cccc(Nc2ncc(F)c(Nc3ccc4c(c3)OCCCO4)n2)c1` [compound 580]: the IC50 with A549 cells (setting [2]) and in the experiment on PC3 was more than 20 µM in each case.
Turning to `CNC(=O)c1cc2cc(Nc3ncc(F)c(Nc4ccc(C(C)(C)C)cc4)n3)ccc2o1` [compound 642], the IC50 in the experiment on PC3 was not above 20 µM.
`CN(C)C(=O)c1cc2cc(Nc3ncc(F)c(Nc4cccc(O)c4)n3)ccc2o1` [compound 643]: the IC50 in the experiment on A549 cells (setting [3]) and with PC3 was more than 20 µM each time.
On to `COc1cc(Nc2nc(Nc3cccc4cc(C(=O)NC(C)(C)CO)[nH]c34)ncc2F)cc(OC)c1` [compound 660], for which the IC50 with HCT116 (setting [4]), in the experiment with H1299 cells (setting [3]) and in the experiment on A549 cells (setting [3]) was not above 20 µM each time.
As to `CCOC(=O)c1cc2cccc(Nc3ncc(F)c(NCCO)n3)c2[nH]1` [compound 667], the IC50 in the experiment with HCT116 (setting [4]), in the experiment on H1299 cells (setting [3]) and in the experiment on A549 cells (setting [3]) was more than 20 µM in each case.
Take `COC(=O)c1cc2cc(Nc3ncc(F)c(Nc4ccc5c(c4)NC(=O)C(F)(F)O5)n3)ccc2o1` [compound 676]: the IC50 with A549 cells (setting [3]) and in the experiment on PC3 was not above 20 µM in each case.
In the case of `CNC(=O)COc1cccc(Nc2ncc(F)c(Nc3ccc(OC(F)(F)F)c(Cl)c3)n2)c1` [compound 699], the IC50 is not above 20 µM with A549 cells (in vitro antiproliferation) and more than 20 µM in the experiment on PC3.
In turn, `Oc1ccc(Nc2ncc(F)c(Nc3ccc(O)c(F)c3)n2)cc1F` [compound 742] returned an IC50 with PC3 not above 20 µM.
With `Oc1cccc(Nc2ncc(F)c(Nc3ccc(OCCN4CCOCC4)cc3)n2)c1` [compound 746], the IC50 in the experiment on A549 cells (in vitro antiproliferation) and in the experiment with PC3 was more than 20 µM each time.
On to `CNC(=O)COc1ccc(Nc2ncc(F)c(Nc3ccc(C(C)(C)C)cc3)n2)cc1` [compound 747], for which the IC50 was more than 20 µM in the experiment with A549 cells (in vitro antiproliferation) and not above 20 µM in the experiment on PC3.
The like results for `CNC(=O)COc1cccc(Nc2ncc(F)c(Nc3ccc(C(C)(C)C)cc3)n2)c1` [compound 748] were, in that order, more than 20 µM and more than 20 µM.
`CC(C)(C)c1ccc(Nc2nc(Nc3cccc(OCC(=O)O)c3)ncc2F)cc1` [compound 749]: the IC50 with A549 cells (in vitro antiproliferation) and in the experiment with PC3 was more than 20 µM throughout.
Turning to `CC(C)(C)c1ccc(Nc2nc(Nc3cccc(OCCO)c3)ncc2F)cc1` [compound 750], the results for the IC50 in the experiment on A549 cells (in vitro antiproliferation) and in the experiment with PC3 were more than 20 µM and not above 20 µM, respectively.
The matching figures for `CNC(=O)COc1cccc(Nc2ncc(F)c(Nc3ccc(OC(C)C)cc3)n2)c1` [compound 751]: less than 20 µM and more than 20 µM.
The matching figures for `CC(C)Oc1ccc(Nc2nc(Nc3cccc(OCC(=O)O)c3)ncc2F)cc1` [compound 752]: more than 20 µM and more than 20 µM.
The matching figures for `CNC(=O)COc1cccc(Nc2ncc(F)c(Nc3ccc(OC)c(OC)c3)n2)c1` [compound 753]: more than 20 µM and more than 20 µM.
On to `COc1ccc(Nc2nc(Nc3cccc(OCC(=O)NCC(O)CO)c3)ncc2F)cc1OC` (stereo not drawn) [compound 754], for which the IC50 in the experiment on A549 cells (in vitro antiproliferation) and in the experiment on PC3 was more than 20 µM each time.
Take `O=C(COc1cccc(Nc2ncc(F)c(Nc3cccc(O)c3)n2)c1)N1CCNCC1` [compound 761]: the IC50 in the experiment on PC3 was more than 20 µM.
In the case of `O=C(COc1cccc(Nc2ncc(F)c(Nc3cccc(O)c3)n2)c1)N1CCOCC1` [compound 762], the IC50 with A549 cells (in vitro antiproliferation) is more than 20 µM; in the experiment with PC3, not above 20 µM.
The like results for `CC(C)c1ccc(Nc2ncc(F)c(Nc3cccc(O)c3)n2)cc1` [compound 764] were, in that order, more than 20 µM and more than 20 µM.
The like results for `COc1cc(Nc2ncc(F)c(Nc3cccc(O)c3)n2)cc(OC)c1` [compound 765] were, in that order, not above 20 µM and not above 20 µM.
The like results for `CNC(=O)COc1cccc(Nc2ncc(F)c(Nc3cc(OC)cc(OC)c3)n2)c1` [compound 767] were, in that order, more than 20 µM and more than 20 µM.
Regarding `CNC(=O)COc1cccc(Nc2ncc(F)c(Nc3ccc(C)c(OC)c3)n2)c1` [compound 790], the IC50 in the experiment with A549 cells (in vitro antiproliferation) and in the experiment on PC3 was not above 20 µM throughout.
Regarding `Cc1cc(C)cc(Nc2ncc(F)c(Nc3cc(C)cc(C)c3)n2)c1` [compound 841], the IC50 in the experiment on HCT116 (setting [5]), in the experiment on H1299 cells (in vitro antiproliferation) and in the experiment with A549 cells (in vitro antiproliferation) was not above 20 µM each time.
Take `COc1cc(Nc2nc(Nc3cc(C)c(C)c(C)c3)ncc2F)cc(OC)c1` [compound 845]: the IC50 in the experiment with HCT116 (setting [5]), with H1299 cells (in vitro antiproliferation) and in the experiment on A549 cells (in vitro antiproliferation) was not above 20 µM throughout.
`COCCOc1cccc(Nc2ncc(F)c(Nc3cc(O)c(O)c(OCCOC)c3)n2)c1` [compound 933]: the IC50 with HCT116 (setting [5]), with H1299 cells (antiproliferation) and in the experiment on A549 cells (antiproliferation) was not above 20 µM in each case.
With `Fc1ccc(Nc2ncc(F)c(Nc3ccc(F)c(Cl)c3)n2)cc1Cl` [compound 938], the IC50 in the experiment on A549 cells (antiproliferation) and in the experiment on PC3 was more than 20 µM in each case.
For `Cc1cc(Nc2nc(Nc3cccc(OCC(=O)N4CCOCC4)c3)ncc2F)cc(C)c1O` [compound 948], the values for the IC50 with A549 cells (antiproliferation) and with PC3 were more than 20 µM and not above 20 µM, respectively.
On to `Cc1cc(Nc2nc(Nc3cccc(OCC(=O)N4CCOCC4)c3)ncc2F)cc(Cl)c1O` [compound 954], for which the IC50 in the experiment with A549 cells (antiproliferation) and with PC3 was more than 20 µM throughout.
For `CNC(=O)COc1cccc(Nc2nc(Nc3cccc(C(C)(C)C)c3)ncc2F)c1` [compound 956], the IC50 in the experiment with A549 cells (antiproliferation) and with PC3 was more than 20 µM throughout.
In the case of `Cc1cc(Nc2nc(Nc3cccc(OCCN4CCOCC4)c3)ncc2F)cc(Cl)c1O` [compound 957], the IC50 in the experiment on A549 cells (antiproliferation) and with PC3 was not above 20 µM each time.
Regarding `Cc1cc(Nc2ncc(F)c(Nc3cccc(C(C)(C)C)c3)n2)cc(Cl)c1O` [compound 959], the IC50 in the experiment on A549 cells (antiproliferation) and in the experiment with PC3 was more than 20 µM throughout.
On to `CNC(=O)COc1cccc(Nc2ncc(F)c(Nc3cccc(C(C)(C)C)c3)n2)c1` [compound 960], for which the IC50 in the experiment on A549 cells (antiproliferation) and in the experiment with PC3 was more than 20 µM throughout.
Consider `CC(C)(C)c1cccc(Nc2nc(Nc3cccc(OCC(=O)NCC(O)CO)c3)ncc2F)c1` (stereo not drawn) [compound 961], for which the IC50 was less than 20 µM in the experiment with A549 cells (antiproliferation) and more than 20 µM with PC3.
The matching figures for `O=C(O)COc1cccc(Nc2ncc(F)c(Nc3cccc(O)c3)n2)c1` [compound 978]: more than 20 µM and more than 20 µM.
The matching figures for `Cc1cc(Nc2nc(Nc3cccc(OCC(=O)N4CCNCC4)c3)ncc2F)cc(C)c1O` [compound 980]: not above 20 µM and more than 20 µM.
The like results for `COC(=O)COc1cccc(Nc2ncc(F)c(Nc3cc(C)c(O)c(C)c3)n2)c1` [compound 982] were, in that order, more than 20 µM and more than 20 µM.
For the molecule `Cc1cc(Nc2nc(Nc3cccc(OCC(=O)N4CCNCC4)c3)ncc2F)cc(Cl)c1O` [compound 983], the results for the IC50 with A549 cells (antiproliferation) and in the experiment on PC3 were not above 20 µM and more than 20 µM, respectively.
The like results for `COC(=O)COc1cccc(Nc2ncc(F)c(Nc3cc(C)c(OC)c(C)c3)n2)c1` [compound 985] were, in that order, more than 20 µM and more than 20 µM.
